What was measured:
[1] = target: T1, Avi-KRAS G12D (1-169) GppNHp/RAF1 RBD-3×FLAG (52-151) (Homo sapiens, UniProt P01116, G12D); test: HTRF Raf1-KRAS G12D-GppNHp disruption assay; type: biochemical; conditions: 1 h incubation
T1 construct: Avi-KRAS G12D (1-169) GppNHp
Procedure, shortened: (§1)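 Compounds titrated from 100 μM in a 10-point series, incubated with protein mix 1 h at room temperature, then HTRF reagents a further 1 h. Time-resolved fluorescence read (excitation 320 nm, emission 615 nm); activity expressed as percentage of DMSO control.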

[2] = target: T2, Avi-KRAS G12D/Q25A (1-169) GppNHp/3×FLAG-PI3KCA (157-299) (Homo sapiens, UniProt P01116, G12D/Q25A); test: HTRF PI3KCA-KRAS G12D/Q25A-GppNHp disruption assay; type: biochemical; conditions: 1 h incubation
T2 construct: Avi-KRAS G12D/Q25A (1-169) GppNHp
Procedure, shortened: as §1

[3] = test system: pERK in GP2d cells (KRAS G12D); test: Cell-based pERK HTRF assay; conditions: GP2d, 1 h, 60 min incubation
Protocol: Biological Example 3. Cell-Based pERK HTRF Assay
pERK assay (Perkin Elmer) was used to determine the effectiveness of compounds in disrupting KRAS G12D protein/effector signaling in cells.
On Day 1, cells (GP2d) were seeded into 96-well plates at 3×10^4 cells/well in 80 μl complete growth media (DMEM, 10% FBS).
On Day 2, cells were treated with compounds at 0.25% DMSO. The source plate was created with compounds diluted in media at 5-fold the final assay concentration. The compounds were run in a 9-point concentration curve starting at 1 μM, with a half-log dilution between concentrations. 20 μL was transferred onto the cell plates (final volume in wells was 100 μL). Plates were harvested after 60 min incubation by aspirating media and adding kit-supplied 1× supplemented lysis buffer to all wells (50 μl per well). Plates were then placed on a plate shaker and incubated at 850 rpm for an additional 30 min.
Antibody mixture solution is prepared by diluting aliquoted d2 and Eu Cryptate antibodies 1:20 in kit supplied detection buffer, mix the diluted antibodies solutions (1:1 v:v). Four μL of this solution is then added to a 384-well detection plate (Perkin Elmer; 6008230).
Samples were homogenized by pipetting up and down and then transferred (16 μL of cell lysates) from the 96-well cell culture plate to two wells of the HTRF 384-well detection plate containing the antibody solution. Plates were centrifuged (524 g for 1 min) and allowed to incubate between 4 and 24 h at room temperature. Maximum signal is reached after 4 h incubation time and remains stable over a period of 24 hours. Therefore, readings can be made between 4 and 24 h of incubation. Plates were centrifuged again (524 g for 1 min), then analyzed on the EnVision plate reader using the following settings: Excitation 320 nm, Bandwidth 75 nm; Emission 615 nm, Bandwidth 85 nm; Gain 100%; Flashes 100; Lag 60 μs.

T1 sequence (P01116 1-169 isoform P01116-2 G12D limits assumed): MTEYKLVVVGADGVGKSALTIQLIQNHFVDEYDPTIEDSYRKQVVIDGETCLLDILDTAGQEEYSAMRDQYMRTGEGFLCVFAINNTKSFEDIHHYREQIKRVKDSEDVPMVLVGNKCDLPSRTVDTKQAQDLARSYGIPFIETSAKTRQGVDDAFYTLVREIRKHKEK
T2 sequence (P01116 1-169 isoform P01116-2 G12D/Q25A limits assumed): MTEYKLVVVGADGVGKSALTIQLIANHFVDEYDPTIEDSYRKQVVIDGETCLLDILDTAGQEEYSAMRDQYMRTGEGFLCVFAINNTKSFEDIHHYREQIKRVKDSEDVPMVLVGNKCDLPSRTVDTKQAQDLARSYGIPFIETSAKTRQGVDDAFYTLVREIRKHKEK

SMILES	IC50 [1] [nM]	IC50 [2] [nM]	IC50 [3] [nM]
Nc1nc2c(-c3c(C(F)(F)F)cc4c(N5C[C@H]6CC[C@@H](C5)N6)nc(OCC5(CN6CCOCC6)CC5)nc4c3F)ccc(F)c2s1 [Compound 251, 4-(4-((1R,5S)-3,8-diazabicyclo[3.2.1]octan-3-yl)-8-fluoro-2-((1-(morpholinomethyl)cyclopropyl)methoxy)-6-(trifluoromethyl)quinazolin-7-yl)-7-fluorobenzo[d]thiazol-2-amine]	100 to 1000	1000 to 10000	≤ 100
Nc1nc2c(-c3c(C(F)(F)F)cc4c(N5CC6CCC(C5)N6)nc(OCC5(CN6CC[C@@H](F)C6)CC5)nc4c3F)ccc(F)c2s1 [Compound 252]	100 to 1000	100 to 1000	≤ 100
Nc1nc2c(-c3c(C(F)(F)F)cc4c(N5C[C@H]6CC[C@@H](C5)N6)nc(OC[C@@]56CCCN5C[C@H](F)C6)nc4c3Cl)ccc(F)c2s1 [Compound 256, 4-(4-((1R,5S)-3,8-diazabicyclo[3.2.1]octan-3-yl)-8-chloro-2-(((2R,7aS)-2-fluorotetrahydro-1H-pyrrolizin-7a(5H)-yl)methoxy)-6-(trifluoromethyl)quinazolin-7-yl)-7-fluorobenzo[d]thiazol-2-amine]	100 to 1000	100 to 1000	≤ 100
N#Cc1cc2c(N3CC4CCC(C3)N4)nc(OC[C@@]34CCCN3C[C@H](F)C4)nc2c(F)c1-c1ccc(F)c2sc(N)nc12 [Compound 258]	100 to 1000	100 to 1000	≤ 100
CO[C@H]1CN2CCC[C@@]2(COc2nc(N3CC4CCC(C3)N4)c3cc(C(F)(F)F)c(-c4ccc(F)c5sc(N)nc45)c(F)c3n2)C1 [Compound 261]	100 to 1000	100 to 1000	≤ 100
Nc1nc2c(-c3c(C(F)(F)F)cc4c(NC5CC6CC[C@H](C5)N6)nc(OCC56CCCN5CCC6)nc4c3F)ccc(F)c2s1 (stereo partly drawn) [Compound 264]	100 to 1000	100 to 1000	> 1000
CN(c1nc(OCC23CCCN2CCC3)nc2c(F)c(-c3ccc(F)c4sc(N)nc34)c(C(F)(F)F)cc12)C12CC(N)(C1)C2 [Compound 274]	100 to 1000	100 to 1000	100 to 1000
CN1C[C@H](F)C[C@H]1COc1nc(N2CC3CCC(C2)N3)c2cc(C(F)(F)F)c(-c3ccc(F)c4sc(N)nc34)c(F)c2n1 [Compound 275]	1000 to 10000	1000 to 10000	≤ 100
C[C@@H]1C[C@@H](N(C)c2nc(OC[C@@]34CCCN3C[C@H](F)C4)nc3c(F)c(-c4ccc(F)c5sc(N)nc45)c(C(F)(F)F)cc23)CN1 [Compound 283]	100 to 1000	100 to 1000	100 to 1000
CO[C@H]1CN2CCC[C@]2(COc2nc(N3CC4CCC(C3)N4)c3cc(C(F)(F)F)c(-c4ccc(F)c5sc(N)nc45)c(F)c3n2)C1 [Compound 285]	100 to 1000	100 to 1000	≤ 100
CN(c1nc(OC[C@@]23CCCN2C[C@H](F)C3)nc2c(F)c(-c3ccc(F)c4sc(N)nc34)c(C(F)(F)F)cc12)[C@@H]1CNCC1(C)C [Compound 293]	100 to 1000	100 to 1000	100 to 1000
CN(c1nc(OCC2(CN3CCOCC3)CC2)nc2c(F)c(-c3ccc(F)c4sc(N)nc34)c(C(F)(F)F)cc12)[C@@H]1CCNC1 [Compound 296]	100 to 1000	1000 to 10000	≤ 100
CN(c1nc(OCC2(CN3CC[C@@H](F)C3)CC2)nc2c(F)c(-c3ccc(F)c4sc(N)nc34)c(C(F)(F)F)cc12)[C@@H]1CCNC1 [Compound 297]	100 to 1000	1000 to 10000	100 to 1000
Nc1nc2c(-c3c(C(F)(F)F)cc4c(N5CC6CCCC(C5)N6)nc(OC[C@@]56CCCN5C[C@H](F)C6)nc4c3F)ccc(F)c2s1 [Compound 299]	100 to 1000	100 to 1000	≤ 100
Nc1nc2c(-c3c(C(F)(F)F)cc4c(N5CC6COCC(C5)N6)nc(OC[C@@]56CCCN5C[C@H](F)C6)nc4c3F)ccc(F)c2s1 [Compound 300]	100 to 1000	100 to 1000	100 to 1000
CN(c1nc(OCC23CCCN2CCC3)nc2c(F)c(-c3ccc(F)c4sc(N)nc34)c(C(F)(F)F)cc12)[C@H]1CC[C@H](N)CC1 [Compound 304]	1000 to 10000	1000 to 10000	> 1000

SMILES	IC50 [1] [nM]	IC50 [2] [nM]	IC50 [3] [nM]
C[C@H]1CNC[C@@H]1N(C)c1nc(OC[C@@]23CCCN2C[C@H](F)C3)nc2c(F)c(-c3ccc(F)c4sc(N)nc34)c(C(F)(F)F)cc12 [Compound 309]	1000 to 10000	1000 to 10000	100 to 1000
C[C@H]1C[C@@H](N(C)c2nc(OC[C@@]34CCCN3C[C@H](F)C4)nc3c(F)c(-c4ccc(F)c5sc(N)nc45)c(C(F)(F)F)cc23)CN1 [Compound 311]	100 to 1000	10000 to 30000	≤ 100
CN(c1nc(OC[C@@]23CCCN2C[C@H](F)C3)nc2c(F)c(-c3ccc(F)c4sc(N)nc34)c(C(F)(F)F)cc12)[C@H]1CNCC12CC2 [Compound 312]	1000 to 10000	10000 to 30000	100 to 1000
Nc1nc2c(-c3cc4nc(OC[C@@]56CCCN5C[C@H](F)C6)nc(N5CC6CCC(C5)N6)c4cc3C(F)(F)F)ccc(F)c2s1 [Compound 313]	100 to 1000	1000 to 10000	≤ 100
CN(c1nc(OC[C@@]23CCCN2C[C@H](F)C3)nc2c(Cl)c(-c3ccc(F)c4sc(N)nc34)c(C(F)(F)F)cc12)[C@@H]1CCNC1 [Compound 314]	100 to 1000	1000 to 10000	100 to 1000
CCN1[C@@H]2CC[C@H]1CN(c1nc(OC[C@@]34CCCN3C[C@H](F)C4)nc3c(F)c(-c4ccc(F)c5sc(N)nc45)c(C(F)(F)F)cc13)C2 [Compound 315, 4-(4-((1R,5S)-8-ethyl-3,8-diazabicyclo[3.2.1]octan-3-yl)-8-fluoro-2-(((2R,7aS)-2-fluorotetrahydro-1H-pyrrolizin-7a(5H)-yl)methoxy)-6-(trifluoromethyl)quinazolin-7-yl)-7-fluorobenzo[d]thiazol-2-amine]	1000 to 10000	10000 to 30000	100 to 1000
CC(C)N1C2CCC1CN(c1nc(OC[C@@]34CCCN3C[C@H](F)C4)nc3c(F)c(-c4ccc(F)c5sc(N)nc45)c(C(F)(F)F)cc13)C2 [Compound 316]	1000 to 10000	1000 to 10000	100 to 1000
N#Cc1csc2c(F)ccc(-c3cc4nc(OC[C@@]56CCCN5C[C@H](F)C6)nc(N5CC6CCC(C5)N6)c4cc3C(F)(F)F)c12 [Compound 318]	1000 to 10000	10000 to 30000	100 to 1000
Nc1nc2c(-c3cc4nc(OC[C@@]56CCCN5C[C@H](F)C6)nc(N5CC6CCC(C5)N6)c4cc3C(F)(F)F)c(F)cc(F)c2s1 [Compound 319]	100 to 1000	100 to 1000	≤ 100
N#Cc1c(N)sc2c(F)ccc(-c3c(OC(F)(F)F)cc4c(N5CC6CCC(C5)N6)nc(OC[C@@]56CCCN5C[C@H](F)C6)nc4c3F)c12 [Compound 320]	100 to 1000	100 to 1000	≤ 100
N#Cc1c(N)sc2c(F)ccc(-c3cc4nc(OC[C@@]56CCCN5C[C@H](F)C6)nc(N5CC6CCC(C5)N6)c4cc3C(F)(F)F)c12 [Compound 323, 4-(4-(3,8-diazabicyclo[3.2.1]octan-3-yl)-2-(((2R,7aS)-2-fluorotetrahydro-1H-pyrrolizin-7a(5H)-yl)methoxy)-6-(trifluoromethyl)quinazolin-7-yl)-2-amino-7-fluorobenzo[b]thiophene-3-carbonitrile]	≤ 100	100 to 1000	≤ 100
Nc1nc2c(-c3c(C(F)(F)F)cc4c(N5CC6CCC(C5)N6CC5CC5)nc(OC[C@@]56CCCN5C[C@H](F)C6)nc4c3F)ccc(F)c2s1 [Compound 324]	1000 to 10000	1000 to 10000	100 to 1000
CN(c1nc(OC[C@@]23CCCN2C[C@H](F)C3)nc2c(F)c(-c3ccc(F)c4sc(N)nc34)c(C(F)(F)F)cc12)[C@H]1CNCC1(C)C [Compound 325]	1000 to 10000	1000 to 10000	> 1000
Nc1nc2c(-c3c(C(F)(F)F)cc4c(N[C@H]5C[C@H]6CNC[C@H]6C5)nc(OCC56CCCN5CCC6)nc4c3F)ccc(F)c2s1 [Compound 326]	1000 to 10000	1000 to 10000	> 1000
Nc1nc2c(-c3c(C(F)(F)F)cc4c(N5CCC6(CCNC6)C5)nc(OCC56CCCN5CCC6)nc4c3F)ccc(F)c2s1 (stereo not drawn) [Compound 327]	100 to 1000	1000 to 10000	> 1000
